Assay results published in ChEMBL document CHEMBL5241054, “Effective anti-aromatase therapy to battle against estrogen-mediated breast cancer: Comparative SAR/QSAR assessment on steroidal aromatase inhibitors” (Eur J Med Chem, 2020).

Molecular target: T1, Aromatase (Homo sapiens, UniProt P11511)
T1 sequence (P11511 whole entry): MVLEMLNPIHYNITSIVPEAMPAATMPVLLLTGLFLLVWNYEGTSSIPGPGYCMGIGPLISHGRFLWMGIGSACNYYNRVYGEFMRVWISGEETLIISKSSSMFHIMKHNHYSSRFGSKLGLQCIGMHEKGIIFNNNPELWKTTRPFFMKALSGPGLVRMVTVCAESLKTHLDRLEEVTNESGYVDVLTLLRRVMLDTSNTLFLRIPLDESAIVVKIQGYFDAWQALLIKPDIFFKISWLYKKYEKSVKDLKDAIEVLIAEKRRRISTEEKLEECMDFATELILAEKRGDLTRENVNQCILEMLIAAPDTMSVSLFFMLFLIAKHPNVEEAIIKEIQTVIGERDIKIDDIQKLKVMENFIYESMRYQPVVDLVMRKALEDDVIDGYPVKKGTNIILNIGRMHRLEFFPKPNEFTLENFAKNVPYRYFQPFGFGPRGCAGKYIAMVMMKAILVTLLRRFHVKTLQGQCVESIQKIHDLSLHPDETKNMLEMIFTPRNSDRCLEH

First: C[C@]12C=CC(=O)C=C1C=C[C@@H]1[C@@H]2CC[C@]2(C)C(=O)CC[C@@H]12
Second: CCC1=C[C@@H]2[C@H](CC[C@]3(C)C(=O)CC[C@@H]23)[C@@]2(C)C=CC(=O)C=C12
The IC50 of the first is 11-fold higher: 0.45 µM for the first, 0.042 µM for the second.

First: C[C@]12CCC(=O)C=C1C[C@@H](CCc1ccccc1)[C@@H]1[C@@H]2CC[C@]2(C)C(=O)CC[C@@H]12
Second: C[C@]12CCC(=O)C=C1C[C@@H](Cc1ccccc1)[C@@H]1[C@@H]2CC[C@]2(C)C(=O)CC[C@@H]12
The IC50 of the first is 2.4-fold lower: 0.138 µM for the first, 0.328 µM for the second.

Going from CCCCC1=C[C@@H]2[C@H](CC[C@]3(C)C(=O)CC[C@@H]23)[C@@]2(C)C=CC(=O)C=C12 to CCCCCC1=C[C@@H]2[C@H](CC[C@]3(C)C(=O)CC[C@@H]23)[C@@]2(C)C=CC(=O)C=C12, the IC50 falls from 0.25 µM to 0.14 µM (1.8-fold).

CCCCC[C@@H]1C[C@@H]2[C@H](CC[C@]3(C)C(=O)CC[C@@H]23)[C@@]2(C)C=CC(=O)C=C12 and CCCCCC[C@@H]1C[C@@H]2[C@H](CC[C@]3(C)C(=O)CC[C@@H]23)[C@@]2(C)C=CC(=O)C=C12 are within 1.5-fold of each other in IC50: 0.054 µM for the first, 0.076 µM for the second.

Compared with CCCC[C@@H]1C[C@@H]2[C@H](CC[C@]3(C)C(=O)CC[C@@H]23)[C@@]2(C)CCC(=O)C=C12, CCCC[C@H]1C[C@@H]2[C@H](CC[C@]3(C)C(=O)CC[C@@H]23)[C@@]2(C)CCC(=O)C=C12 is 1.5-fold higher in IC50: 0.511 µM for the first, 0.791 µM for the second. The first is the more potent here.

First: C[C@]12C=CC(=O)C=C1C(CCc1ccccc1)=C[C@@H]1[C@@H]2CC[C@]2(C)C(=O)CC[C@@H]12
Second: C[C@]12C=CC(=O)C=C1C(CCCc1ccccc1)=C[C@@H]1[C@@H]2CC[C@]2(C)C(=O)CC[C@@H]12
The IC50 of the first is 4.8-fold lower: 0.0729 µM for the first, 0.35 µM for the second.

First: C[C@]12CCC(=O)C=C1[C@@H](CCc1ccccc1)C[C@@H]1[C@@H]2CC[C@]2(C)C(=O)CC[C@@H]12
Second: C[C@]12CCC(=O)C=C1[C@H](CCc1ccccc1)C[C@@H]1[C@@H]2CC[C@]2(C)C(=O)CC[C@@H]12
The IC50 of the first is 7.5-fold lower: 140 µM for the first, 1050 µM for the second.

CCCCCCC1=C[C@@H]2[C@H](CC[C@]3(C)C(=O)CC[C@@H]23)[C@@]2(C)C=CC(=O)C=C12 and CCCCCCCC1=C[C@@H]2[C@H](CC[C@]3(C)C(=O)CC[C@@H]23)[C@@]2(C)C=CC(=O)C=C12 are within 1.5-fold of each other in IC50: 0.155 µM for the first, 0.23 µM for the second.

Compared with C[C@]12CCC(=O)C=C1[C@@H](Cc1ccccc1)C[C@@H]1[C@@H]2CC[C@]2(C)C(=O)CC[C@@H]12, C[C@]12CCC(=O)C=C1[C@H](Cc1ccccc1)C[C@@H]1[C@@H]2CC[C@]2(C)C(=O)CC[C@@H]12 is 6.1-fold higher in IC50: 0.661 µM for the first, 4 µM for the second. The first is the more potent here.

CCCC1=C[C@@H]2[C@H](CC[C@]3(C)C(=O)CC[C@@H]23)[C@@]2(C)CCC(=O)C=C12 and CCCCC1=C[C@@H]2[C@H](CC[C@]3(C)C(=O)CC[C@@H]23)[C@@]2(C)CCC(=O)C=C12 are within 1.5-fold of each other in IC50: 0.315 µM for the first, 0.265 µM for the second.

First: C[C@]12CCC(=O)C=C1[C@H](CCCCc1ccccc1)C[C@@H]1[C@@H]2CC[C@]2(C)C(=O)CC[C@@H]12
Second: C[C@]12CCC(=O)C=C1[C@@H](CCCCc1ccccc1)C[C@@H]1[C@@H]2CC[C@]2(C)C(=O)CC[C@@H]12
The IC50 of the first is 2.5-fold lower: 135 µM for the first, 340 µM for the second. The first is the more potent here.

Compared with CCCCCCC1=C[C@@H]2[C@H](CC[C@]3(C)C(=O)CC[C@@H]23)[C@@]2(C)CCC(=O)C=C12, CCCCCCCC1=C[C@@H]2[C@H](CC[C@]3(C)C(=O)CC[C@@H]23)[C@@]2(C)CCC(=O)C=C12 is 2.1-fold higher in IC50: 0.2 µM for the first, 0.43 µM for the second.

Going from CCC1=C[C@@H]2[C@H](CC[C@]3(C)C(=O)CC[C@@H]23)[C@@]2(C)CCC(=O)C=C12 to CCCCCC1=C[C@@H]2[C@H](CC[C@]3(C)C(=O)CC[C@@H]23)[C@@]2(C)CCC(=O)C=C12, the IC50 falls from 0.39 µM to 0.22 µM (1.8-fold).

Going from CC[C@@H]1C[C@@H]2[C@H](CC[C@]3(C)C(=O)CC[C@@H]23)[C@@]2(C)CCC(=O)C=C12 to CC[C@H]1C[C@@H]2[C@H](CC[C@]3(C)C(=O)CC[C@@H]23)[C@@]2(C)CCC(=O)C=C12, the IC50 rises from 0.14 µM to 0.26 µM (1.9-fold).

First: C[C@]12CCC(=O)C=C1C(CCc1ccccc1)=C[C@@H]1[C@@H]2CC[C@]2(C)C(=O)CC[C@@H]12
Second: C[C@]12CCC(=O)C=C1C(CCCc1ccccc1)=C[C@@H]1[C@@H]2CC[C@]2(C)C(=O)CC[C@@H]12
The IC50 of the first is 2.7-fold lower: 0.092 µM for the first, 0.25 µM for the second.

CCCC1=C[C@@H]2[C@H](CC[C@]3(C)C(=O)CC[C@@H]23)[C@@]2(C)C=CC(=O)C=C12 and C[C@]12C=CC(=O)C=C1C(Cc1ccccc1)=C[C@@H]1[C@@H]2CC[C@]2(C)C(=O)CC[C@@H]12 are within 1.5-fold of each other in IC50: 0.1 µM for the first, 0.0929 µM for the second.

First: C=C[C@@H]1C[C@@H]2[C@H](CC[C@]3(C)C(=O)CC[C@@H]23)[C@@]2(C)CCC(=O)C=C12
Second: C[C@@H]1C[C@@H]2[C@H](CC[C@]3(C)C(=O)CC[C@@H]23)[C@@]2(C)CCC(=O)C=C12
The IC50 of the first is 2.2-fold lower: 0.32 µM for the first, 0.719 µM for the second. The first is the more potent here.

Going from C[C@]12CCC(=O)C=C1C(Cc1ccccc1)=C[C@@H]1[C@@H]2CC[C@]2(C)C(=O)CC[C@@H]12 to C[C@]12CCC(=O)C=C1C(CCCCc1ccccc1)=C[C@@H]1[C@@H]2CC[C@]2(C)C(=O)CC[C@@H]12, the IC50 rises from 0.078 µM to 0.28 µM (3.6-fold). The first is the more potent here.

Going from C[C@H]1C[C@@H]2[C@H](CC[C@]3(C)C(=O)CC[C@@H]23)[C@@]2(C)CCC(=O)C=C12 to CC(C)[C@H]1C[C@@H]2[C@H](CC[C@]3(C)C(=O)CC[C@@H]23)[C@@]2(C)CCC(=O)C=C12, the IC50 rises from 0.35 µM to 1.4 µM (4-fold).

Compared with C[C@]12CCC(=O)C=C1C(c1ccccc1)=C[C@@H]1[C@@H]2CC[C@]2(C)C(=O)CC[C@@H]12, C[C@]12C=CC(=O)C=C1C(c1ccccc1)=C[C@@H]1[C@@H]2CC[C@]2(C)C(=O)CC[C@@H]12 is 2.7-fold higher in IC50: 0.2 µM for the first, 0.54 µM for the second. The first is the more potent here.

Going from C[C@]12CCC(=O)C=C1C(CCCCCc1ccccc1)=C[C@@H]1[C@@H]2CC[C@]2(C)C(=O)CC[C@@H]12 to C[C@]12C=CC(=O)C=C1C(CCCCCc1ccccc1)=C[C@@H]1[C@@H]2CC[C@]2(C)C(=O)CC[C@@H]12, the IC50 falls from 0.3 µM to 0.1 µM (3-fold). The second is the more potent here.

First: C[C@]12C=CC(=O)C=C1C(CCCCc1ccccc1)=C[C@@H]1[C@@H]2CC[C@]2(C)C(=O)CC[C@@H]12
Second: C[C@]12C=CC(=O)C=C1[C@@H](CCCCc1ccccc1)C[C@@H]1[C@@H]2CC[C@]2(C)C(=O)CC[C@@H]12
The IC50 of the first is 1.5-fold lower: 0.15 µM for the first, 0.23 µM for the second. The first is the more potent here.

Compared with C[C@]12C=CC(=O)C=C1[C@@H](CCCCCc1ccccc1)C[C@@H]1[C@@H]2CC[C@]2(C)C(=O)CC[C@@H]12, C[C@]12C=CC(=O)C=C1[C@@H](CCCc1ccccc1)C[C@@H]1[C@@H]2CC[C@]2(C)C(=O)CC[C@@H]12 is 1.5-fold higher in IC50: 0.33 µM for the first, 0.511 µM for the second.

Compared with C[C@]12CCC(=O)C=C1[C@H](c1ccccc1)C[C@@H]1[C@@H]2CC[C@]2(C)C(=O)CC[C@@H]12, C[C@]12CCC(=O)C=C1[C@@H](c1ccccc1)C[C@@H]1[C@@H]2CC[C@]2(C)C(=O)CC[C@@H]12 is 1.5-fold lower in IC50: 1.7 µM for the first, 1.1 µM for the second. The second is the more potent here.

Compared with C#C[C@@H]1C[C@@H]2[C@H](CC[C@]3(C)C(=O)CC[C@@H]23)[C@@]2(C)CCC(=O)C=C12, CC(C)[C@@H]1C[C@@H]2[C@H](CC[C@]3(C)C(=O)CC[C@@H]23)[C@@]2(C)CCC(=O)C=C12 is 1.7-fold lower in IC50: 1.9 µM for the first, 1.1 µM for the second. The second is the more potent here.

Going from CCCC[C@@H]1C[C@@H]2[C@H](CC[C@]3(C)C(=O)CC[C@@H]23)[C@@]2(C)C=CC(=O)C=C12 to CCC[C@@H]1C[C@@H]2[C@H](CC[C@]3(C)C(=O)CC[C@@H]23)[C@@]2(C)C=CC(=O)C=C12, the IC50 falls from 0.18 µM to 0.06 µM (3-fold).

C[C@]12CCC(=O)C=C1[C@@H](CCCCCc1ccccc1)C[C@@H]1[C@@H]2CC[C@]2(C)C(=O)CC[C@@H]12 and C[C@]12CCC(=O)C=C1[C@H](CCCCCc1ccccc1)C[C@@H]1[C@@H]2CC[C@]2(C)C(=O)CC[C@@H]12 are within 1.5-fold of each other in IC50: 560 µM for the first, 450 µM for the second.

C[C@]12C=CC(=O)C=C1C[C@@H](CCc1cccc([N+](=O)[O-])c1)[C@@H]1[C@@H]2CC[C@]2(C)C(=O)CC[C@@H]12 and C[C@]12C=CC(=O)C=C1C[C@@H](CCCc1ccc(N)cc1)[C@@H]1[C@@H]2CC[C@]2(C)C(=O)CC[C@@H]12 are within 1.5-fold of each other in IC50: 0.133 µM for the first, 0.158 µM for the second.

C[C@]12C=CC(=O)C=C1[C@@H](Cc1ccccc1)C[C@@H]1[C@@H]2CC[C@]2(C)C(=O)CC[C@@H]12 and C[C@]12C=CC(=O)C=C1[C@@H](CCc1ccccc1)C[C@@H]1[C@@H]2CC[C@]2(C)C(=O)CC[C@@H]12 are within 1.5-fold of each other in IC50: 0.27 µM for the first, 0.32 µM for the second.

C[C@]12C=CC(=O)C=C1[C@H](c1ccccc1)C[C@@H]1[C@@H]2CC[C@]2(C)C(=O)CC[C@@H]12 and C[C@]12C=CC(=O)C=C1[C@@H](c1ccccc1)C[C@@H]1[C@@H]2CC[C@]2(C)C(=O)CC[C@@H]12 are within 1.5-fold of each other in IC50: 0.53 µM for the first, 0.681 µM for the second.

C[C@]12CCC(=O)C=C1[C@@H](CCCc1ccccc1)C[C@@H]1[C@@H]2CC[C@]2(C)C(=O)CC[C@@H]12 and C[C@]12CCC(=O)C=C1[C@H](CCCc1ccccc1)C[C@@H]1[C@@H]2CC[C@]2(C)C(=O)CC[C@@H]12 are within 1.5-fold of each other in IC50: 400 µM for the first, 290 µM for the second.

First: CCC[C@H]1C[C@@H]2[C@H](CC[C@]3(C)C(=O)CC[C@@H]23)[C@@]2(C)CCC(=O)C=C12
Second: CCC[C@@H]1C[C@@H]2[C@H](CC[C@]3(C)C(=O)CC[C@@H]23)[C@@]2(C)CCC(=O)C=C12
The IC50 of the first is 1.6-fold higher: 0.39 µM for the first, 0.24 µM for the second. The second is the more potent here.

CCCCCCC[C@@H]1C[C@@H]2[C@H](CC[C@]3(C)C(=O)CC[C@@H]23)[C@@]2(C)C=CC(=O)C=C12 showed an IC50 of 0.06 µM.
